# According to patent US20150133456A1, “FLUOROERGOLINE DERIVATIVES AND USES THEREOF” (MAP PHARMACEUTICALS, INC., priority 2012, published 2015):
# Assays:
# D2 receptor = target: T1, D2 receptor (Homo sapiens, UniProt P14416); experiment: Agonist activity at the D2 receptor; format: cell-based; details: read-out: EC50, D2 receptor agonism
# T1 construct: expressed in transfected cells
# Method: The assay was performed analogously to the assay described in Example 4.
# human α2A receptor = human α2A receptor (Homo sapiens, UniProt P08913); experiment: GTPγS antagonist assay, α2A; format: biochemical; details: read-out: IC50, α2A antagonism
# Sequence of human α2A receptor (P08913 whole entry): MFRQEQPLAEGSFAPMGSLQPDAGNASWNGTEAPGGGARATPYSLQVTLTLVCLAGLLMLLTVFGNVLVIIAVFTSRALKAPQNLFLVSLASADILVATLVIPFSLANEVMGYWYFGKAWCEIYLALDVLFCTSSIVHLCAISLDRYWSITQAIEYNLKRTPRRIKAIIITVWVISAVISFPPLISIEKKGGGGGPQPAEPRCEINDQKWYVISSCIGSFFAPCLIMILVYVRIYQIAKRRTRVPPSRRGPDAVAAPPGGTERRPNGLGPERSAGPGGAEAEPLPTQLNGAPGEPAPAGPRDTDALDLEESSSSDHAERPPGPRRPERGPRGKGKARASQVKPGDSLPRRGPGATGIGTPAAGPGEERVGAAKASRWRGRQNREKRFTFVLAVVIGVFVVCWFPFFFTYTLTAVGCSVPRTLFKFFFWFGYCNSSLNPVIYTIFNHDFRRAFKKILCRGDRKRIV
# [1] = tested on: Purinergic (P2X1/P2X2/P2X3/P2X4/P2X7); experiment: Purinergic receptor QPatch patch clamp, agonist and antagonist modes; format: cell-based, human; details: agonist and antagonist modes at 3 and 10 μM
# Method: Human recombinant purinergic receptor expressing HEK293 cells were used and receptor activity was evaluated at room temperature using QPatch HT® (Sophion Bioscience A/S, Denmark) automatic parallel patch clamp system. 2CF3-DHE was evaluated in both agonist and antagonist modes at 3 and 10 μM. Each concentration was tested in triplicates.
# [2] = tested on: VIP/PACAP (PAC1/VPAC1/VPAC2); experiment: VIP/PACAP receptor Aequorin assays; format: cell-based, human
# Method: (§1) CHO-K1 cells coexpressing mitochondrial apoaequorin and the recombinant human receptor of interest were grown to mid-log phase in culture media without antibiotics and then detached with PBS-EDTA, centrifuged and resuspended in assay buffer (DMEM/HAM's F12 with HEPES, without phenol red+0.1% BSA, protease free) at a concentration of 1×10^6 cell/mL. Cells were incubated at room temperature for at least 4 hours with coelenterazine h. Reference agonist/antagonist was tested to evaluate the performance of the assay and to determine EC50/IC50.
# (§2) 50 μL of the cell suspension was mixed with 50 μL of test or reference agonist in a 96-well plate. […] For antagonist testing, 100 μL of the reference agonist at its EC80 was injected on the mix of cells and test compound, following an incubation of 15 minutes after the first injection. The resulting emission of light was r recorded using Hamamatsu Functional Drug Screening System 6000 (FDSS 6000) luminometer. To standardize the emission of recorded light (and determine of the “100% signal”) across plates and across different experiments, some wells contained 100 μM digitonin or a saturating concentration of ATP (20 μM).
# Somatostatin (SST1~SST5) = experiment: Somatostatin receptor GTPγS assays; format: biochemical, human
# Method: (§3) Reagents used were the following: Assay buffer (20 mM HEPES, pH 7.4; 100 mM NaCl; 10 μg/mL saponin; 30 mM MgCl2); Membranes (recombinant human receptor membrane extracts were thawed on ice and diluted in assay buffer to give 1000 μg/mL ([…]) and kept on ice); GDP (diluted in assay buffer to give 30 μM solution (3 μM final concentration); beads (PVT-WGA (Amersham, RPNQ001), diluted in assay buffer at 25 mg/mL (0.25 mg/10 μL)); GTPγ^35S (Perkin Elmer, NEG030X), diluted in assay buffer to give 0.1 nM (final concentration); and ligand (agonist/antagonist diluted in assay buffer).
# (§4) Membranes were mixed with GDP (1:1) and incubated for at least 15 minutes on ice. In parallel GTPγ^35S was mixed with the beads (1:1) just before starting the reaction. The following reagents were successively added in the wells of an Optiplate (Perkin Elmer): 50 μL test compound or reference ligand, 20 μL of the membranes:GDP mix (then 15 minute incubation for antagonist test), 10 μL of reference agonist at historical EC80 (for antagonist test) or 10 μL of assay buffer (for agonist test) and 20 μL of the GTPγ^35S:beads mix. […] The plates were then centrifuged for 10 minutes at 2000 rpm and incubated at room temperature for 1 hour and counted for 1 min/well with a Perkin Elmer TopCount reader.
# Calcitonin (AM1/AM2) = Calcitonin (AM1/AM2) cAMP HTRF assays; format: cell-based, human
# Method: Cells expressing the human recombinant receptor of interest were grown in media without antibiotic and detached by gentle flushing with PBS-EDTA (5 mM EDTA), recovered by centrifugation and resuspended in assay buffer (KRH: 5 mM KCl, 1.25 mM MgSO4, 124 mM NaCl, 25 mM HEPES, 13.3 mM glucose, 1.25 mM KH2PO4, 1.45 mM CaCl2, 0.5 g/L BSA). Dose response curves were performed in parallel with the reference compounds. For agonist tests (96-well plates), 12 μL of cells was mixed with 12 μL of the test compound at increasing concentrations and then incubated for 30 minutes at room temperature. Lysis buffer was added and after a 1 hour incubation, cAMP concentrations was determined according to the manufacturer specification with the HTRF kit. […] Lysis buffer was added and after a 1 hour incubation, cAMP concentrations were determined according to the manufacturer specification, with the HTRF kit.
# Cells expressing the human recombinant receptor of interest were grown in media without antibiotic and detached by gentle flushing with PBS-EDTA (5 mM EDTA), recovered by centrifugation and resuspended in assay buffer (KRH: 5 mM KCl, 1.25 mM MgSO4, 124 mM NaCl, 25 mM HEPES, 13.3 mM glucose, 1.25 mM KH2PO4, 1.45 mM CaCl2, 0.5 g/L BSA). […] Lysis buffer was added and after a 1 hour incubation, cAMP concentrations was determined according to the manufacturer specification with the HTRF kit. […]
# Opioid (OP1/OP2/OP3) = experiment: Opioid receptor GTPγS assays; format: biochemical, human
# Method: as §3, §4
# Calcitonin (CGRP) = target: T2, Calcitonin (CGRP) (Homo sapiens, UniProt O60894+Q16602); experiment: CGRP receptor Aequorin assay; format: cell-based
# T2 construct: expressed in transfected cells; host or cells: CHO-AEQ (CHO-K1 with mitochondrial apoaequorin)
# T2 sequence (Q16602 23-461): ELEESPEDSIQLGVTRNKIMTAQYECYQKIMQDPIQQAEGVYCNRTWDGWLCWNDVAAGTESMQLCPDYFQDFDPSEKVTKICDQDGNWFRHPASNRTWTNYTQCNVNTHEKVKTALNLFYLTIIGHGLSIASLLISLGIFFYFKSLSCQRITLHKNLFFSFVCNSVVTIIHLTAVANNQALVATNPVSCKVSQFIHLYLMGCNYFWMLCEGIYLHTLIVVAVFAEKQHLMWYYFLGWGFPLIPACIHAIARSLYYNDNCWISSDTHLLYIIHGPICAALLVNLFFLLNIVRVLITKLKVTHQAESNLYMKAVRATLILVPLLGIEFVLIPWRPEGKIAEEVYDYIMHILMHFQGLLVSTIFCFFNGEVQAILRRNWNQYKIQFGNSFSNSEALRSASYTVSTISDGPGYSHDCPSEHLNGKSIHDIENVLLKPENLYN
# T2 sequence (O60894 27-148 partner): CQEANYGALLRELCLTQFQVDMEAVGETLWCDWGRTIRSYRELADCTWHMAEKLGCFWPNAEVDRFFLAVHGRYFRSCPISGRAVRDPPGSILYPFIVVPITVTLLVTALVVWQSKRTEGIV
# Method: as §1, §2
# OX1 = target: T3, OX1 (Homo sapiens, UniProt O43613); experiment: Orexin receptor Aequorin assay; format: cell-based; details: antagonism
# T3 construct: expressed in transfected cells; host or cells: CHO-AEQ (CHO-K1 with mitochondrial apoaequorin)
# T3 sequence (O43613 whole entry): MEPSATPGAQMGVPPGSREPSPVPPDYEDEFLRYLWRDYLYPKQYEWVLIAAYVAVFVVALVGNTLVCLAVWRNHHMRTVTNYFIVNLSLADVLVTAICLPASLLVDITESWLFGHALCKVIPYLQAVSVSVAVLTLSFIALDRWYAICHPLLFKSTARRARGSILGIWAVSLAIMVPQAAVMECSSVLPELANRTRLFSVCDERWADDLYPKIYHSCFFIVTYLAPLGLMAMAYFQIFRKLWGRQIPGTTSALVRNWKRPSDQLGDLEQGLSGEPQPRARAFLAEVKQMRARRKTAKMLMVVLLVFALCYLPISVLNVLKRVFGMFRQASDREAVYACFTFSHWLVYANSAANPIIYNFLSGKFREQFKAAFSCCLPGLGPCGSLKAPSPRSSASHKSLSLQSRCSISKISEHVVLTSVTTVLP
# Method: as §1, §2
# NK1 = target: T4, NK1 (Homo sapiens, UniProt P25103); experiment: Neurokinin receptor Aequorin assay; format: cell-based; details: antagonism
# T4 construct: expressed in transfected cells; host or cells: CHO-AEQ (CHO-K1 with mitochondrial apoaequorin)
# T4 sequence (P25103 whole entry): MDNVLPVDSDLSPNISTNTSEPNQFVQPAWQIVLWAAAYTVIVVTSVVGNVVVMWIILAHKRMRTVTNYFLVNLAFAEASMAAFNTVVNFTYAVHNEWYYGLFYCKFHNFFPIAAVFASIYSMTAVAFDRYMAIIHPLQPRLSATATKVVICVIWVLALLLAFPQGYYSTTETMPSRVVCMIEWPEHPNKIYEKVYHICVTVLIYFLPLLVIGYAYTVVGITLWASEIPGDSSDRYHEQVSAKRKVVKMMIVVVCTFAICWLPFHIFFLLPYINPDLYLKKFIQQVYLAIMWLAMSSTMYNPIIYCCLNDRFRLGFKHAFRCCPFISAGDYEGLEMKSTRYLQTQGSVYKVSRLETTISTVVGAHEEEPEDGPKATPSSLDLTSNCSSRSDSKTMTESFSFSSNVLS
# Method: as §1, §2
# T1 sequence (P14416 whole entry): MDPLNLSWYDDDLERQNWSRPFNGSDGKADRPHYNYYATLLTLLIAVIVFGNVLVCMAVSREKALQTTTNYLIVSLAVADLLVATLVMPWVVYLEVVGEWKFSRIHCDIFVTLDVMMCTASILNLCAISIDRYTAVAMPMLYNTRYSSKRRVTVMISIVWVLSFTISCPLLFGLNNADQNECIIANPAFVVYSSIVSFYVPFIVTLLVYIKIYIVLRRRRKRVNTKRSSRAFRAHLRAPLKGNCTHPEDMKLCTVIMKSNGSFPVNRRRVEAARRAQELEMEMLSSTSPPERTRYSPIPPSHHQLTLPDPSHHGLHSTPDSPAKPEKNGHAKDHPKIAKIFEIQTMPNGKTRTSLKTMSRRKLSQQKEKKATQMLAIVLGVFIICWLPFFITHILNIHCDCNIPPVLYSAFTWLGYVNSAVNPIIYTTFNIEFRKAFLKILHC
smiles,measurement,setting,value
CN1C[C@H](C(=O)N[C@]2(C)O[C@@]3(O)[C@@H]4CCCN4C(=O)[C@H](Cc4ccccc4)N3C2=O)CC2c3cccc4[nH]c(C(F)(F)F)c(c34)CC21 (stereo partly shown) [2-CF3-dihydroergotamine],EC50,D2 receptor,218 nM
same,IC50,human α2A receptor,404 nM
same,Activity (Agonism: EC50; Antagonism: IC50),[1],Inactive
same,Activity (Agonism: EC50; Antagonism: IC50),[2],Inactive
same,Activity (Agonism: EC50; Antagonism: IC50),Somatostatin (SST1~SST5),Inactive
same,Activity (Agonism: EC50; Antagonism: IC50),Calcitonin (AM1/AM2),Inactive
same,Activity (Agonism: EC50; Antagonism: IC50),Opioid (OP1/OP2/OP3),Inactive
same,Activity (Agonism: EC50; Antagonism: IC50),Calcitonin (CGRP),Inactive
same,IC50,OX1,> 10000 nM
same,IC50,NK1,> 1000 nM
